According to patent US11180461B2, “Triazoles as Kv3 inhibitors” (AUTIFONY THERAPEUTICS LIMITED, priority 2012, dated 2021):

What was measured:
[1] = molecular target: T1, human Kv3.2 channels (hKv3.2) (Homo sapiens, UniProt Q96PR1); test: hKv3.2 recombinant cell assay, IonWorks Quattro planar array electrophysiology; format: cell-based; details: activity quantified by EC50
T1 construct: expressed in transfected cells
T1 sequence (Q96PR1 1-638): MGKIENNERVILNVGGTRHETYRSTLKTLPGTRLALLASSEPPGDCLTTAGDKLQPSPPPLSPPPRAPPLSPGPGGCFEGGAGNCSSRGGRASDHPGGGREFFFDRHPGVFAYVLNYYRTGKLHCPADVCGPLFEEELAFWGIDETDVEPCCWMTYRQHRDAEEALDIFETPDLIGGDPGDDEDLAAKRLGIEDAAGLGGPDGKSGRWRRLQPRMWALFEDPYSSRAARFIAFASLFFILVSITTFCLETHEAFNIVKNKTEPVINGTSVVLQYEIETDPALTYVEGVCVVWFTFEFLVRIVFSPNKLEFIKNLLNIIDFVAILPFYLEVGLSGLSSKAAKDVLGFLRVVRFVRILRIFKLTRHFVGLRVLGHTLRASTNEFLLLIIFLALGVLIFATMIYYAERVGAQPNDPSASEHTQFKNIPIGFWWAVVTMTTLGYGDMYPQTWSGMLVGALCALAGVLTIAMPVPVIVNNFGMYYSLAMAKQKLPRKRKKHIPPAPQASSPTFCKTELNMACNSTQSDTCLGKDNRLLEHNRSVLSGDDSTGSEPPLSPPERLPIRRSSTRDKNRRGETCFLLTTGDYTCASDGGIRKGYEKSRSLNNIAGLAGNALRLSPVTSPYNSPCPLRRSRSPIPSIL
Excerpt: The ability of the compounds of the invention to modulate the voltage-gated potassium channel subtypes Kv3.2/3.1 may be determined using the following assay. The assay may also be used to determine the ability of compounds of the invention to modulate the voltage-gated potassium channel Kv3.3. Analogous methods may be used to investigate the ability of the compounds of the invention to modulate other channel subtypes.
To assess compound effects on human Kv3.2 channels (hKv3.2), a stable cell line expressing human Kv3.2 channels (hKv3.2) was created by transfecting Chinese Hamster Ovary (CHO)—K1 cells with a pCIH5-hKv3.2 vector. Cells were cultured in DMEM/F12 medium supplemented by 10% Foetal Bovine Serum, 1× non-essential amino acids (Invitrogen) and 500 ug/ml of Hygromycin-B (Invitrogen). Cells were grown and maintained at 37° C. in a humidified environment containing 5% CO2 in air. […]
Experiments were conducted at room temperature using IonWorks Quattro™ planar array electrophysiology technology (Molecular Devices Corp.) with PatchPlate™ PPC. […] Planar electrode hole resistances (Rp) were determined by applying a 10 mV voltage step across each well. […] Test pulses protocol may be performed in the absence (pre-read) and presence (post-read) of the test compound. Pre- and post-reads may be separated by the compound addition followed by a 3 minute incubation. […]

[2] = Determination of in vivo pharmacokinetic parameters (blood and brain) in rats, with and without Elacridar; details: rat, oral 1 mg/kg
Protocol: Adult male rats (Charles River, Italy) were dosed with test compound orally at 1 mg/kg (5 ml/kg, in 5% v/v DMSO, 0.5% w/v HPMC in water) and intravenously at 0.5 mg/kg (2 ml/kg, in 5% v/v DMSO 40% w/v PEG400 in saline). After oral administration, blood samples were collected under deep Isofluorane anesthesia from the portal vein and heart of each rat (1 rat per time point). After intravenous administration, serial blood samples were collected from the lateral tail vein of each rat. A further group of rats (n=1 per test compound) received a single intravenous administration of the PgP transport inhibitor, Elacridar (3 mg/kg) shortly before the oral administration of the test compound at 1 mg/kg, as above. Blood and brain samples were collected at a single timepoint of 0.5 h after dose administration for these animals. In all cases, blood samples were collected into potassium EDTA tubes.
Blood and brain samples were assayed for test compound concentration using a method based on protein precipitation with acetonitrile followed by HPLC/MS-MS analysis with an optimized analytical method.
The concentrations of test compound in blood (expressed as ng/ml) and brain (expressed as ng/g) at the different time points following either oral or intravenous dosing were analysed using a non-compartmental pharmacokinetic model using WinNonLin Professional version 4.1. The following parameters were drived:
Intravenous dosing: Maximum concentration over time (Cmax), integrated concentration over time (AUC), clearance (Clb), volume of distribution (Vss) and half-life (t1/2).
Oral dosing: Cmax, time of maximum concentration (Tmax), AUC, bioavailability (F %), fraction absorbed (Fa %), blood to brain ratio (AUC BB), and Fold-change in AUC BB in the presence of Elacridar.

With `Cc1n[nH]c(=O)n1-c1ccc(Oc2cccc3c2C2(CC2)CO3)nc1` [Example 15, 5-methyl-4-[6-(spiro[1-benzofuran-3,1′-cyclopropan]-4-yloxy)pyridin-3-yl]-2,4-dihydro-3H-1,2,4-triazol-3-one] the “selectivity for modulation of Kv3.2 channels over Kv3.1 channels” value [1] was “demonstrates selectivity for Kv3.2 channels”, the “AUC BB relative to Reference Example 87 and Reference Example 88 of WO2011069951A1” value ([2]; AUC BB from blood and brain) was “at least two fold” and the “change in AUC BB in the presence of Elacridar” value ([2]; Elacridar 3 mg/kg i.v., blood and brain at 0.5 h, p-glycoprotein interaction) was “limited change”.
